Measured values: patent US10716306B2, “N-alkylsulfonyl indoline compound, agricultural and horticultural insecticide comprising the compound, and method for using the insecticide” (Nihon Nohyaku Co., Ltd., priority 2016, dated 2020)

Columns and labels:
Plutella xylostella = assay: Insecticidal test on Plutella xylostella; format: in vivo; conditions: 144 h, Chinese cabbage seedlings with laid eggs dipped about 30 seconds, 25° C., 6 days after the dip treatment, read-out: insecticidal efficacy (corrected mortality rate)
Text: Insecticidal Test on Plutella xylostella
Adults of Plutella xylostella were released onto Chinese cabbage seedlings and allowed to lay eggs thereon. At 2 days after the release of the adults, the Chinese cabbage seedlings with laid eggs were dipped for about 30 seconds in agrochemical dispersions diluted to 500 ppm, each of which contained a different kind of indoline compound represented by the general formula (1) of the present invention as an active ingredient. After air-dried, the seedlings were kept in a thermostatic chamber at 25° C. At 6 days after the dip treatment, the number of hatched larvae per plot was counted, the mortality rate was calculated according to the formula shown below, and the insecticidal efficacy was evaluated according to the criteria of Test Example 2. This test was conducted in triplicate using 10 adults of Plutella xylostella per plot. Corrected mortality rate (%)=100×(Number of hatched larvae in a non-treatment plot−Number of hatched larvae in a treatment plot)/Number of hatched larvae in a non-treatment plot [Math. 3]

Laodelphax striatellus = assay: Insecticidal test on Laodelphax striatellus; format: in vivo; conditions: 192 h, rice seedlings dipped 30 seconds, ten 3rd-instar larvae, 8 days after the inoculation, read-out: insecticidal efficacy (corrected mortality rate)
Text: Insecticidal Test on Laodelphax striatellus
The condensed heterocyclic compounds represented by the general formula (1) of the present invention or salts thereof were separately dispersed in water and diluted to 500 ppm. Rice plant seedlings (variety: Nihonbare) were dipped in the agrochemical dispersions for 30 seconds. After air-dried, each seedling was put into a separate glass test tube and inoculated with ten 3rd-instar larvae of Laodelphax striatellus, and then the glass test tubes were capped with cotton plugs. At 8 days after the inoculation, the numbers of surviving larvae and dead larvae were counted, the corrected mortality rate was calculated according to the formula shown below, and the insecticidal efficacy was evaluated according to the criteria shown below. Corrected mortality rate (%)=100×(Survival rate in a non-treatment plot−Survival rate in a treatment plot)/Survival rate in a non-treatment plot [Math. 2] Corrected Mortality Rate A: the corrected mortality rate is 100%. B: the corrected mortality rate is 90 to 99%. C: the corrected mortality rate is 80 to 89%. D: the corrected mortality rate is 50 to 79%.

CCS(=O)(=O)N1c2ccc(I)cc2CC1c1nc2cc(SC(F)(F)F)ccc2o1 (centres unmarked) [Compound 3-5, 2-(1-ethylsulfonyl-5-iodoindolin-2-yl)-5-trifluoromethyl-thiobenzo[d]oxazole]
mortality at 500 ppm (Plutella xylostella): 100%
mortality at 500 ppm (Laodelphax striatellus): 100%

CCS(=O)(=O)N1c2ccccc2CC1c1nc2cc(SC(F)(F)F)ccc2o1 (centres unmarked) [Compound 3-1, 2-(1-ethylsulfonyl-indolin-2-yl)-5-trifluoromethyl-thiobenzo[d]oxazole]
mortality at 500 ppm (Plutella xylostella): 100%
mortality at 500 ppm (Laodelphax striatellus): 100%

CCS(=O)(=O)N1c2ccccc2CC1c1nc2cc(C(F)(F)F)cnc2n1C (centres unmarked) [Compound 2-1, 2-(1-ethylsulfonyl-indolin-2-yl)-3-methyl-6-trifluoromethyl-3H-imidazo[4,5-b]pyridine]
mortality at 500 ppm (Plutella xylostella): 100%
mortality at 500 ppm (Laodelphax striatellus): 100%

CCS(=O)(=O)N1c2ccc(C3CC3)cc2CC1c1nc2cc(SC(F)(F)F)ccc2o1 (centres unmarked) [Compound 3-19, 2-(1-ethylsulfonyl-5-cyclopropyl-indolin-2-yl)-5-trifluoromethyl-thiobenzo[d]oxazole]
mortality at 500 ppm (Plutella xylostella): 100%
mortality at 500 ppm (Laodelphax striatellus): 100%
